Values joined by “and” are separate entries in the source; they are usually repeats but may differ in a detail not shown here. Equal values may be shown once. One block for each molecule: values may come before it.
System: LG0567-F671-PDC multi-cell spheroid viability
Experiment: Anticancer human tumor LG0567-F671-PDC patient-derived lung adenocarcinoma cell line growth inhibition [IpAb]
Settings: for viability, T/C: stronger effect = lower value
Source text: Combinatorial screen of targeted agents with ipatasertib and abemaciclib in multi-cell type tumor spheroids
A high-throughput screen of multi-cell type tumor spheroids was designed to identify active combinations of targeted small molecules and ipatasertib or abemaciclib. Complex spheroids include a stromal component modeled by human endothelial cells (HUVEC) and fibroblasts modeled by human mesenchymal stem cells (MSCs). The concentration ranges selected for each drug and investigational agent were based upon clinically achievable concentrations if the clinical Cmax of the agent was known.
Compounds. The drugs and investigational agents: ipatasertib (NSC767898), abemaciclib(NSC768073), selumetinib (NSC741078), trametinib (758246), adavosertib (NSC754352), everolimus (NSC733504), sapanisertib (NSC764658), vemurafenib (NSC761431), venetoclax (NSC766270), copanlisib (NSC809693), apelisib (NSC765974), palbociblib (NSC758247), vemurafenib (NSC761431), dabrafenib (NSC764134), ravoxertinib (NSC781343), BMS-387032 (NSC767048), sotorasib (NSC818433), talazoparib (NSC767125) and afursertib (NSC778305), were obtained from the National Cancer Institute (NCI) Developmental Therapeutics Program Chemical Repository. The FDA-approved anticancer drug set is available from the NCI Developmental Therapeutics Program. […] The stock solutions were prepared in dimethyl sulfoxide (DMSO, Sigma-Aldrich, St. Louis, MO, cat. D2650) at 800-fold the tested concentration and stored at -70 degrees C prior to their use. All drugs and investigational agents were tested over a range starting from a high concentration at or near the clinical Cmax and decreasing in half-log increments. If the clinical Cmax for an agent had not been determined, the highest concentration tested was 10 microM.
NCI60 Cell Culture. NCI60 cell lines were obtained from the NCI Developmental Therapeutics Program Tumor Repository. For each lot of cells, the Repository performed Applied Biosystems AmpFLSTR Identifiler testing with PCR amplification to confirm consistency with the published Identifier STR profile for each cell line. Cells were kept in continuous culture for no more than 20 passages. The optimal seeding densities for each of the cell lines at each time point assessed were determined prior to performing the concentration response studies. Briefly, the NCI60 human tumor lines were grown as monolayers in RPMI 1640 medium supplemented with 10% FBS and 2 mmol/L L-glutamine.
An additional 9 lines were from the NCI60 cell line panel including MDA-MB-231 breast carcinoma, MDA-MB-468 breast carcinoma, MCF7 breast carcinoma, Hs578T breast carcinoma, MALME-3M melanoma, SK-MEL-2 melanoma, SK-OV-3 ovarian carcinoma, DU-145 prostate carcinoma, PC-3 prostate carcinoma, all cell lines along with major genetic alterations are listed on Table 2. Pooled donor human umbilical vein endothelial cells (HUVEC, Lonza, cat. CC-2519) and human mesenchymal stem cells (hMSC, Lonza, cat. PT-2501) were purchased from Lonza (Walkersville, MD).
PDMR cell lines were grown in complete medium (DC medium): Dulbecco's modified Eagle's medium (DMEM)/F12 supplemented with 5% fetal bovine serum (FBS), 2 mM L-glutamine, 100 U/mL penicillin and 100 µg/ml streptomycin, 0.4 µg/ml hydrocortisone, 10 ng/ml epidermal growth factor (EGF) recombinant human protein, 24 µg/mL adenine, and 0.1 mg/mL primocin. During culture from frozen stock vials, PDMR cells were cultured in the same medium containing 10 µM Y-27632 (see Table 3). The PDCs were cultured in complete DMEM/F12 media without 10 microM Y-27632 dihydrochloride for at least two passages prior to the screen. The pooled donor HUVEC and hMSC were cultured in endothelial cell growth medium 2 (PromoCell, Heidelberg, Germany, cat. C-22011) and mesenchymal stem cell growth medium 2 (PromoCell, cat. C-28009), respectively. For all experiments, HUVEC and hMSC were used at passages </=5.
[…]

[1] = curve of first compound, second compound 0.1 µM
[2] = curve of first compound, second compound 0.316 µM
[3] = curve of first compound, second compound 1 µM
[4] = curve of first compound, second compound 3.16 µM
[5] = curve of first compound, second compound 10 µM
[6] = second compound 0.1 µM, first compound 0.0316 µM
[7] = second compound 0.1 µM, first compound 0.1 µM
[8] = second compound 0.1 µM, first compound 0.316 µM
[9] = second compound 0.1 µM, first compound 1 µM
[10] = second compound 0.1 µM, first compound 3.16 µM
[11] = second compound 0.1 µM, first compound 10 µM
[12] = second compound 0.316 µM, first compound 0.0316 µM
[13] = second compound 0.316 µM, first compound 0.1 µM
[14] = second compound 0.316 µM, first compound 0.316 µM
[15] = second compound 0.316 µM, first compound 1 µM
[16] = second compound 0.316 µM, first compound 3.16 µM
[17] = second compound 0.316 µM, first compound 10 µM
[18] = second compound 1 µM, first compound 0.0316 µM
[19] = second compound 1 µM, first compound 0.1 µM
[20] = second compound 1 µM, first compound 0.316 µM
[21] = second compound 1 µM, first compound 1 µM
[22] = second compound 1 µM, first compound 3.16 µM
[23] = second compound 1 µM, first compound 10 µM
[24] = second compound 3.16 µM, first compound 0.0316 µM
[25] = second compound 3.16 µM, first compound 0.1 µM
[26] = second compound 3.16 µM, first compound 0.316 µM
[27] = second compound 3.16 µM, first compound 1 µM
[28] = second compound 3.16 µM, first compound 3.16 µM
[29] = second compound 3.16 µM, first compound 10 µM
[30] = second compound 10 µM, first compound 0.0316 µM
[31] = second compound 10 µM, first compound 0.1 µM
[32] = second compound 10 µM, first compound 0.316 µM
[33] = second compound 10 µM, first compound 1 µM
[34] = second compound 10 µM, first compound 3.16 µM
[35] = second compound 10 µM, first compound 10 µM
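Also: viability read after 7 days of drug exposure.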
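For viability, T/C in this document: 100% = DMSO vehicle control luminescence.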

IC50 (curve of compound): > 10000 nM and 1800 nM
SMILES: Cc1nc(NC(=O)N2CCCC2C(N)=O)sc1-c1ccnc(C(C)(C)C(F)(F)F)c1 (configuration not stated)
viability, T/C (compound 0.0316 µM): 85.2%
viability, T/C (compound 0.1 µM): 79.3% and 90.2%
viability, T/C (compound 0.316 µM): 59.3% and 74%
viability, T/C (compound 1 µM): 44.5% and 52.8%
viability, T/C (compound 3.16 µM): 66.8% and 49.1%
viability, T/C (compound 10 µM): 50.2% and 46.2%

SMILES: CC(C)(C)c1cnc(CSc2cnc(NC(=O)C3CCNCC3)s2)o1 + CC(C)NCC(C(=O)N1CCN(c2ncnc3c2C(C)CC3O)CC1)c1ccc(Cl)cc1
IC50 [1]: 169 nM
IC50 [2]: 137 nM
IC50 [3]: 158 nM
IC50 [4]: 152 nM
IC50 [5]: 148 nM
viability, T/C (second compound 0.1 µM, first compound 0.00949 µM): 117%
viability, T/C (second compound 0.1 µM, first compound 0.03 µM): 110%
viability, T/C (second compound 0.1 µM, first compound 0.0949 µM): 96.3%
viability, T/C (second compound 0.1 µM, first compound 0.3 µM): 3.55%
viability, T/C (second compound 0.1 µM, first compound 0.949 µM): 1.37%
viability, T/C (second compound 0.1 µM, first compound 3 µM): 0.93%
viability, T/C (second compound 0.316 µM, first compound 0.00949 µM): 73.6%
viability, T/C (second compound 0.316 µM, first compound 0.03 µM): 111%
viability, T/C (second compound 0.316 µM, first compound 0.0949 µM): 72.7%
viability, T/C (second compound 0.316 µM, first compound 0.3 µM): 2.55%
viability, T/C (second compound 0.316 µM, first compound 0.949 µM): 1.26%
viability, T/C (second compound 0.316 µM, first compound 3 µM): 0.62%
viability, T/C (second compound 1 µM, first compound 0.00949 µM): 95.6%
viability, T/C (second compound 1 µM, first compound 0.03 µM): 117%
viability, T/C (second compound 1 µM, first compound 0.0949 µM): 88.8%
viability, T/C (second compound 1 µM, first compound 0.3 µM): 2.06%
viability, T/C (second compound 1 µM, first compound 0.949 µM): 0.88%
viability, T/C (second compound 1 µM, first compound 3 µM): 0.72%
viability, T/C (second compound 3.16 µM, first compound 0.00949 µM): 97.9%
viability, T/C (second compound 3.16 µM, first compound 0.03 µM): 113%
viability, T/C (second compound 3.16 µM, first compound 0.0949 µM): 82.9%
viability, T/C (second compound 3.16 µM, first compound 0.3 µM): 2.53%
viability, T/C (second compound 3.16 µM, first compound 0.949 µM): 0.89%
viability, T/C (second compound 3.16 µM, first compound 3 µM): 0.79%
viability, T/C (second compound 10 µM, first compound 0.00949 µM): 79.2%
viability, T/C (second compound 10 µM, first compound 0.03 µM): 74.1%
viability, T/C (second compound 10 µM, first compound 0.0949 µM): 88%
viability, T/C (second compound 10 µM, first compound 0.3 µM): 1.97%
viability, T/C (second compound 10 µM, first compound 0.949 µM): 0.87%
viability, T/C (second compound 10 µM, first compound 3 µM): 0.7%

SMILES: C=CC(=O)N1CCN(c2nc(=O)n(-c3c(C)ccnc3C(C)C)c3nc(-c4c(O)cccc4F)c(F)cc23)C(C)C1 (configuration not stated) + CC(C)NCC(C(=O)N1CCN(c2ncnc3c2C(C)CC3O)CC1)c1ccc(Cl)cc1
IC50 [1]: < 31.6 nM
IC50 [2]: < 31.6 nM
IC50 [3]: < 31.6 nM
IC50 [4]: < 31.6 nM
IC50 [5]: < 31.6 nM
viability, T/C [6]: 20%
viability, T/C [7]: 15.1%
viability, T/C [8]: 15.1%
viability, T/C [9]: 14.7%
viability, T/C [10]: 15.9%
viability, T/C [11]: 16.6%
viability, T/C [12]: 12.9%
viability, T/C [13]: 16.1%
viability, T/C [14]: 15.5%
viability, T/C [15]: 14.8%
viability, T/C [16]: 8.74%
viability, T/C [17]: 9.44%
viability, T/C [18]: 13.8%
viability, T/C [19]: 13.9%
viability, T/C [20]: 13.1%
viability, T/C [21]: 10.5%
viability, T/C [22]: 10.2%
viability, T/C [23]: 8.39%
viability, T/C [24]: 14.9%
viability, T/C [25]: 15.8%
viability, T/C [26]: 11.4%
viability, T/C [27]: 10.6%
viability, T/C [28]: 10.4%
viability, T/C [29]: 10.6%
viability, T/C [30]: 13.5%
viability, T/C [31]: 11%
viability, T/C [32]: 10.1%
viability, T/C [33]: 10%
viability, T/C [34]: 12.5%
viability, T/C [35]: 9.01%

SMILES: CCCS(=O)(=O)Nc1ccc(F)c(C(=O)c2c[nH]c3ncc(-c4ccc(Cl)cc4)cc23)c1F + CC(C)NCC(C(=O)N1CCN(c2ncnc3c2C(C)CC3O)CC1)c1ccc(Cl)cc1
IC50 [1]: > 10000 nM
IC50 [2]: > 10000 nM
IC50 [3]: > 10000 nM
IC50 [4]: > 10000 nM
IC50 [5]: > 10000 nM
viability, T/C [6]: 100%
viability, T/C [7]: 119%
viability, T/C [8]: 111%
viability, T/C [9]: 137%
viability, T/C [10]: 162%
viability, T/C [11]: 147%
viability, T/C [12]: 77.1%
viability, T/C [13]: 90.5%
viability, T/C [14]: 94.5%
viability, T/C [15]: 114%
viability, T/C [16]: 127%
viability, T/C [17]: 140%
viability, T/C [18]: 77.3%
viability, T/C [19]: 78.6%
viability, T/C [20]: 88.3%
viability, T/C [21]: 115%
viability, T/C [22]: 124%
viability, T/C [23]: 82%
viability, T/C [24]: 88.3%
viability, T/C [25]: 82.5%
viability, T/C [26]: 93.8%
viability, T/C [27]: 102%
viability, T/C [28]: 82.9%
viability, T/C [29]: 77.5%
viability, T/C [30]: 88.3%
viability, T/C [31]: 64.1%
viability, T/C [32]: 77%
viability, T/C [33]: 84.9%
viability, T/C [34]: 70.3%
viability, T/C [35]: 57.7%
